# Calls of active or inactive are those of the source.
# What was measured:
# [1] = blockers of HIV-1 ZM109 envelope-driven cell-cell fusion – HeLa effector, CEM target cells, luciferase, cherry-pick, dose response (AID 652058); type: functional, cell-based;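 also: luciferase signal from HIV-1 Env mediated cell-cell fusion of effector and target cells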
# [2] = HIV-1 AD8 envelope cell-cell fusion blockers – cherry-pick, dose response (AID 652062); type: functional, cell-based;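 also: luciferase signal from cell-cell fusion driven by HIV-1 clade B AD8 Env; potency is for inhibitors of fusion seen as a drop in luminescence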
# [3] = off-target signal loss in HeLa-CEM21 co-culture – HeLa F-luc CTL cells, cherry-picked, counter-screen for HIV-1 Env fusion inhibitor project, dose response (AID 652040); type: functional, cell-based;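 also: potency for signal decrease marking cytotoxic or nonspecific inhibition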
# Cytochrome P450 2C9 = Cytochrome P450 2C9 (Homo sapiens, UniProt P11712)
# Vero = assay: viability of Vero cells under compound – cytotoxicity control for flavivirus capping enzyme inhibitors (AID 588742); type: functional; details: Chlorocebus sabaeus
# Genome polyprotein = Genome polyprotein (dengue virus type 2, UniProt P29990); assay: flavivirus cap methylation enzyme inhibition – biochemical, confirmation dose response, primary screen (AID 588689); type: functional
# [4] = molecular target: T1, Replicative DNA helicase DnaB (Mycobacterium tuberculosis, UniProt P9WMR3); assay: DnaB intein splicing inhibitors, dose response, biochemical, cell-free fluorescence (AID 449749); type: functional
# T1 sequence (P9WMR3 whole entry): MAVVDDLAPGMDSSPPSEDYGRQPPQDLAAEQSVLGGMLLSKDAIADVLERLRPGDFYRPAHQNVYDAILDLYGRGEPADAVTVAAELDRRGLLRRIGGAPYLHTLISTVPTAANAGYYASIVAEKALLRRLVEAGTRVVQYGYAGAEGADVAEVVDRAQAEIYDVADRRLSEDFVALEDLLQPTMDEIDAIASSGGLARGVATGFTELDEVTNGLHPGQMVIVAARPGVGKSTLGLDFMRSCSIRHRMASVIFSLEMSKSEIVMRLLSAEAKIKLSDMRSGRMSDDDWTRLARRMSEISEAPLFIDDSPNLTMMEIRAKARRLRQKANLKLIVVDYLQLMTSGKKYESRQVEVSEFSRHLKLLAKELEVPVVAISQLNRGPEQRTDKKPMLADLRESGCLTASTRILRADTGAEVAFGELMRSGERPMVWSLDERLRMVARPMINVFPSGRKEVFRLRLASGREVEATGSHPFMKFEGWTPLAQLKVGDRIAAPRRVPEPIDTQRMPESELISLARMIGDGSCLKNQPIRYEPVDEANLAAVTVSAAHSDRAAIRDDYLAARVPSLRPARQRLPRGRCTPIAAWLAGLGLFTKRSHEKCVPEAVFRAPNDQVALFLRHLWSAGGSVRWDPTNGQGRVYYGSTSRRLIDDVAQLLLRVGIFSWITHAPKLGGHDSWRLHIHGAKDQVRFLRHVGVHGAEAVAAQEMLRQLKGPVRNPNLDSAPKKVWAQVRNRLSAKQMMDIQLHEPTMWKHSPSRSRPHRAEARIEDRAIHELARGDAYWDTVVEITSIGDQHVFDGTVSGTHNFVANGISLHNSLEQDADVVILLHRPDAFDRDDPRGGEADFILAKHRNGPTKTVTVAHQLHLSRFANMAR
# Protein RecA = molecular target: T2, Protein RecA (Mycobacterium tuberculosis, UniProt P9WHJ3); assay: Fluorescence Cell-Free Homogeneous Dose Retest to Identify Inhibitors of RecA-Intein Splicing Activity. [Related pubchem assays (depositor defined):AID2097, AID2223, AID489010, AID492950]; type: functional
# T2 sequence (P9WHJ3 whole entry): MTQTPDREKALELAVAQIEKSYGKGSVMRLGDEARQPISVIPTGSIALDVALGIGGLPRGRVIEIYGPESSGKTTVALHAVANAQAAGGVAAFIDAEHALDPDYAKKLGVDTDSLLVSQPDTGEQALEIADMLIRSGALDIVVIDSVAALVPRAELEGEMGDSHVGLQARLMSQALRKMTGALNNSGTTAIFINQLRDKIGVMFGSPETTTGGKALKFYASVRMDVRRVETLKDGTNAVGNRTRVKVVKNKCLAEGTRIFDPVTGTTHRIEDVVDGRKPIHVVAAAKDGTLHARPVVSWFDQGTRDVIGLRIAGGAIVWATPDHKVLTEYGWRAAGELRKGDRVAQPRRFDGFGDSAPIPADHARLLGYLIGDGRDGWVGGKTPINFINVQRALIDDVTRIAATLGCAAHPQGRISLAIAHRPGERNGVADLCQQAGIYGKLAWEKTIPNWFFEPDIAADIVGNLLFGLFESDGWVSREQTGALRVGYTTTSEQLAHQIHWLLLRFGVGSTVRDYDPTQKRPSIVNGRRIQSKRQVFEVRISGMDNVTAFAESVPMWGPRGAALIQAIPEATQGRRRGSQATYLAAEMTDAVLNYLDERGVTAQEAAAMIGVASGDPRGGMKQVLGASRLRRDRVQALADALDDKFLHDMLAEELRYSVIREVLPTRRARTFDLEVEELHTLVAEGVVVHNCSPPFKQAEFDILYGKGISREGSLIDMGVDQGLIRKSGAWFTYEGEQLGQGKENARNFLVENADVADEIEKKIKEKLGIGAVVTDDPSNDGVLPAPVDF
# [5] = Luminescence Cell-Based Dose Retest to Confirm Inhibitors of Cancer Stem Cells. [Related pubchem assays (depositor defined):AID2717, AID2721]; type: functional; details: Homo sapiens
# [6] = Trypanosoma cruzi growth suppression in host cells – NIH3T3 host cells, beta-gal luminescence, confirmation (AID 2044); type: functional, cell-based;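 also: intracellular parasites grown in NIH/3T3 mouse fibroblasts as host cells; luminescent beta-galactosidase reporter signal from transgenic T. cruzi replicating inside host cells; inhibitors lower the luminescence signal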
# [7] = NIH3T3 cell viability loss – ATP luminescence, mouse fibroblasts, counter-screen, dose response (AID 2010); type: functional, cell-based;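 also: cells exposed to compound for about 90 hours before reading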
# [8] = molecular target: T3, DNA repair protein RAD52 homolog (Homo sapiens, UniProt P43351); type: functional, biochemical
# T3 sequence (P43351 whole entry): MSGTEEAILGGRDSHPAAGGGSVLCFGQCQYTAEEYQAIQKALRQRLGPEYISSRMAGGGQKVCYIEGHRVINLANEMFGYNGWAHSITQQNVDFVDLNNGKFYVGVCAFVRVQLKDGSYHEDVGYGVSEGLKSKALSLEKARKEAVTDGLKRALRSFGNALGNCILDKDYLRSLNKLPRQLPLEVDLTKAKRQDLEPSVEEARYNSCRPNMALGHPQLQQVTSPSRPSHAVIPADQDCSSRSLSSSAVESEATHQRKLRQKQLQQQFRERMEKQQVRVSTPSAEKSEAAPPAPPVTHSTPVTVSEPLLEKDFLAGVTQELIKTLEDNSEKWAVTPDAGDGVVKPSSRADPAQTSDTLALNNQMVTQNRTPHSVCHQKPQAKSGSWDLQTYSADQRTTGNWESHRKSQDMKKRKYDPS
# [9] = molecular target: T4, Rac GTPase-activating protein 1 (Homo sapiens, UniProt Q9H0H5); assay: blockers of MgcRacGAP-driven Rac1 GTP hydrolysis – biochemical, ADP Hunter fluorescence, primary and confirmatory, confirmation (AID 624330); type: functional
# T4 sequence (Q9H0H5 whole entry): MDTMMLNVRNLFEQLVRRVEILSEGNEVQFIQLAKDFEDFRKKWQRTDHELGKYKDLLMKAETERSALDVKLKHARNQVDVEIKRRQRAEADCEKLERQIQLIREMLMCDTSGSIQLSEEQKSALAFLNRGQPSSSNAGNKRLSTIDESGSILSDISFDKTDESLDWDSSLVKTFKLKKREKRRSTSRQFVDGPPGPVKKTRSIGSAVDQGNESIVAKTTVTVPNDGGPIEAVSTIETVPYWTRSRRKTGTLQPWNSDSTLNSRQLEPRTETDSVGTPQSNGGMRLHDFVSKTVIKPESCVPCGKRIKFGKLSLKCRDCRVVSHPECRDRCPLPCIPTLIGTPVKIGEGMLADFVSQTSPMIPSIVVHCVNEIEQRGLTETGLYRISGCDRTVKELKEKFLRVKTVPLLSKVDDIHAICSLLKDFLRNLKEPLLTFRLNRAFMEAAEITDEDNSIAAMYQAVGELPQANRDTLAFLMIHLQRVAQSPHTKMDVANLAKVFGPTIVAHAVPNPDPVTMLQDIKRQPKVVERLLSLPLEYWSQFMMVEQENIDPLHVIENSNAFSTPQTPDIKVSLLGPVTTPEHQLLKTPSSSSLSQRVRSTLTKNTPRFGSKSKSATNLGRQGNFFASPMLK
# Paired box protein Pax-8 = Paired box protein Pax-8 (Homo sapiens, UniProt Q06710); assay: PAX8 transcriptional activity inhibition in RMG-I – RMG-I cells, luciferase, cherry-pick, dose response (AID 687027); type: functional, cell-based;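 also: luciferase reporter driven by Pax8 target thyroperoxidase promoter measured by SteadyGlo luminescence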
# [10] = OVCAR8 cell viability loss – plate reader, dry powder samples, PAX8 project, dose response (AID 743197); type: functional, cell-based; details: OVCAR-8
# [11] = OVCAR-3 cell viability loss – plate reader, dry powder samples, PAX8 inhibitor project, dose response (AID 743044); type: functional, cell-based
# [12] = activation of miR-122 Renilla sensor silencing – cell-based, Huh7 psiCHECK-miR122, Renilla luciferase, cherry-picked, dose response (AID 651956); type: functional;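 also: huh7 hepatoma cells stably carrying a psiCHECK-2 miR-122 sensor plasmid; renilla luciferase signal reporting endogenous miR-122 activity after 48 h compound exposure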
# [13] = molecular target: T5, Ubiquitin-conjugating enzyme E2 N (Homo sapiens, UniProt P61088); type: functional;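 also: Dose-response confirmation in a TR-FRET assay detecting UBC13-driven polyubiquitin chain formation, inhibition measured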
# T5 sequence (P61088 whole entry): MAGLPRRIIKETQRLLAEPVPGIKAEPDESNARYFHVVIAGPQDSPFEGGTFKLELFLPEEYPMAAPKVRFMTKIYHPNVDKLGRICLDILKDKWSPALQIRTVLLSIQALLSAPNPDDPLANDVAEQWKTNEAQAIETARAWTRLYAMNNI
# [14] = molecular target: 5-hydroxytryptamine receptor 2A (Mus musculus, UniProt P35363); type: functional, cell-based;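 also: CHO-K1 cells with tagged receptor and beta-arrestin; agonist potency measured as compound-induced activation of the receptor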
# Mu-type opioid receptor = Mu-type opioid receptor (Homo sapiens, UniProt P35372); type: functional, cell-based;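 also: U2OS cells with beta-arrestin recruitment to OPRM1 by beta-gal complementation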
# [15] = IC50 of Artemis nuclease activity blockers – biochemical, fluorescence intensity, dose response (AID 720701); type: functional;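 also: Artemis endonuclease enzyme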
# Chain of 5-hydroxytryptamine receptor 2A (P35363 whole entry): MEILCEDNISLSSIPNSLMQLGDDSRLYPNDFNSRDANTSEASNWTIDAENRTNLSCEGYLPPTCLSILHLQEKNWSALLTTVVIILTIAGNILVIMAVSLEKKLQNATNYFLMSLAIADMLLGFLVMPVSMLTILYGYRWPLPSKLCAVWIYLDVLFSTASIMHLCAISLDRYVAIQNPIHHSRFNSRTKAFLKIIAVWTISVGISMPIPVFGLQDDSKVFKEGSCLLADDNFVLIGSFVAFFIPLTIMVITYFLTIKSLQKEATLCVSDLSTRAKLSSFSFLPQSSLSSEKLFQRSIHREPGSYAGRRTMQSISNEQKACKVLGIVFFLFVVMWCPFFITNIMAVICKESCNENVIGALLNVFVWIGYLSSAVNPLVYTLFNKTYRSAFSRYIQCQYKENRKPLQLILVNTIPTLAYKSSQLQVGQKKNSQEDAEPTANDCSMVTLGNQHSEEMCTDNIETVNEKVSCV
# Chain of Mu-type opioid receptor (P35372 whole entry): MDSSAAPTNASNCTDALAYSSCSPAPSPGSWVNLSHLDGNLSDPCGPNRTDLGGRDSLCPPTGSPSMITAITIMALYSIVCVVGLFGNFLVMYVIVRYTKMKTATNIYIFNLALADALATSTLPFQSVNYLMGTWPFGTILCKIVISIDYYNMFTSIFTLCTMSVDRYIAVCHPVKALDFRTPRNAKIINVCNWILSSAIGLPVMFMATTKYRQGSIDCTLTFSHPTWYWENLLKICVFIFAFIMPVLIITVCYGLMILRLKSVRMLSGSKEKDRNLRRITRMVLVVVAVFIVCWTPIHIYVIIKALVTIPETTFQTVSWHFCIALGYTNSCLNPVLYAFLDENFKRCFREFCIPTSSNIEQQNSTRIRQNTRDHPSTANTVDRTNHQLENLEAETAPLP
# Chain of Cytochrome P450 2C9 (P11712 whole entry): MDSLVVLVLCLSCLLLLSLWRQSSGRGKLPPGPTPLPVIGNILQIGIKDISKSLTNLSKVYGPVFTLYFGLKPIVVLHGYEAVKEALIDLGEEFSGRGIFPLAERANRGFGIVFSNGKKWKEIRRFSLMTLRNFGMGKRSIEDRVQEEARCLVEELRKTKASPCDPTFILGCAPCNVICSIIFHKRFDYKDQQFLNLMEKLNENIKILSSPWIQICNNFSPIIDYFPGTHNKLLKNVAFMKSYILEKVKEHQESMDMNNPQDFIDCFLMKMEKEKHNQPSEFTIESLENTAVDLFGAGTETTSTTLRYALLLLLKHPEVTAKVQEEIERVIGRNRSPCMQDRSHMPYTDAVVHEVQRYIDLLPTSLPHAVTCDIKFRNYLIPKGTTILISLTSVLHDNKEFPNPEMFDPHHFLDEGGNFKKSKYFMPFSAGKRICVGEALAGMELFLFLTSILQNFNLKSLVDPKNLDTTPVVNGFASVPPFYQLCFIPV
# Chain of Genome polyprotein (P29990 2492-3391 limits assumed): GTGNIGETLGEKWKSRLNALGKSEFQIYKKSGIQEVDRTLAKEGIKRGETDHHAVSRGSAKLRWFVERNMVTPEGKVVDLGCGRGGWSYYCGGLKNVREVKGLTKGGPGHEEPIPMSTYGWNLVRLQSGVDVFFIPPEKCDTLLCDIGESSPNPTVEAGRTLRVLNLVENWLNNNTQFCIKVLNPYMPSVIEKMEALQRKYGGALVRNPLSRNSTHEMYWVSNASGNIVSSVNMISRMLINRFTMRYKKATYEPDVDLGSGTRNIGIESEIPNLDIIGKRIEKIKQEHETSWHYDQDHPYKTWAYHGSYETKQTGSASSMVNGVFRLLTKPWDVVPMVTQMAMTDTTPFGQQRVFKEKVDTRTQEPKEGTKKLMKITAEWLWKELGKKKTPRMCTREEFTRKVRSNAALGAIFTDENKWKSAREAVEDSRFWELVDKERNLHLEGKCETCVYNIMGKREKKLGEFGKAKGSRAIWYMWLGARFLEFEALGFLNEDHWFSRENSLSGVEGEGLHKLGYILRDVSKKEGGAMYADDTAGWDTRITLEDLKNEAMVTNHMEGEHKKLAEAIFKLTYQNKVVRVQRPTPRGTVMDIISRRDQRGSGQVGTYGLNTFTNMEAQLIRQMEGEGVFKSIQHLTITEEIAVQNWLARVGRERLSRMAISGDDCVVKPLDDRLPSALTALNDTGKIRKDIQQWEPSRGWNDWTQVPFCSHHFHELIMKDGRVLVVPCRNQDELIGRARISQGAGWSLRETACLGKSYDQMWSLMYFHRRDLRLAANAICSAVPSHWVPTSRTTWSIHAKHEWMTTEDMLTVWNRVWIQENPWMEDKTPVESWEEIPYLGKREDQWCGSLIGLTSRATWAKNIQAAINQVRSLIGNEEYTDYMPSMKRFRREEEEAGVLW
# Chain of Paired box protein Pax-8 (Q06710 whole entry): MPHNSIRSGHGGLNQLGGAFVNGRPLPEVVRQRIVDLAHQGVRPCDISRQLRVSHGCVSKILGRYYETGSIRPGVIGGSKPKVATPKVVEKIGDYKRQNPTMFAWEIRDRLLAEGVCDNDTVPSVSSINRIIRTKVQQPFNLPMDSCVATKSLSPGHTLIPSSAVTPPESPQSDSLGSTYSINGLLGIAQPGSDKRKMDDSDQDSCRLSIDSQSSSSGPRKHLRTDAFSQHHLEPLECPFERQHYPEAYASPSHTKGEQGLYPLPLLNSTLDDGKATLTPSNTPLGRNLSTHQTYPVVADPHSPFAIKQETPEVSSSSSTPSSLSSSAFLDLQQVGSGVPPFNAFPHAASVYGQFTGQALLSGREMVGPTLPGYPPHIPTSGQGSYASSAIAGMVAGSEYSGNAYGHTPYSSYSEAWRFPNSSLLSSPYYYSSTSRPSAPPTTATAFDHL
compound,measurement,setting,value
CNc1nc2c(c(=O)n(C)c(=O)n2C)n1Cc1ccccc1,AC50,[1],10.2 µM (active)
same,AC50,[2],13.9 µM (active)
same,AC50,[3],> 70 µM (inactive)
CCC(C)(C)n1nnnc1C(C(C)C)N(Cc1ccco1)Cc1cc2cc3c(cc2nc1O)OCO3 (centres undefined),AC50,Cytochrome P450 2C9,inconclusive
same,CC50,Vero,> 40 µM (active)
Cn1nc([N+](=O)[O-])c(C(C#N)c2ccccn2)c(Cl)c1=O (centres undefined),IC50,Genome polyprotein,26.5 µM (active)
same,AC50,[4],25.8 µM (active)
same,EC50,Protein RecA,9.8 µM (active)
same,AC50,[5],5.48 µM (active)
same,EC50,[6],4.82 µM (active)
same,EC50,[7],> 30 µM (not active)
same,CC50,Vero,12 µM (active)
CC1(C)Nc2cccc3cccc(c23)N1,AC50,[8],25.6 µM (active)
same,IC50,[9],21.6 µM (active)
C[C@H]1CCCCO[C@H](CN(C)Cc2ccc(C(F)(F)F)cc2)[C@@H](C)CN([C@@H](C)CO)C(=O)c2cc(NS(=O)(=O)c3cccs3)ccc2O1,AC50,Paired box protein Pax-8,5.95 µM (active)
same,AC50,[10],> 70 µM (inactive)
same,AC50,[11],37.6 µM (active)
Nc1ccc(Oc2ccc(Br)cc2)cc1,AC50,[12],0.378 µM (active)
COc1cccc2sc(N(CCCN(C)C)C(=O)c3sc4ccccc4c3Cl)nc12,AC50,[8],6.13 µM (active)
same,IC50,[13],> 20 µM (inactive)
CC(C(=O)O)c1ccc(C(=O)c2cccs2)cc1 (centres undefined) [SUPROFEN],EC50,[14],5.34 µM (active)
same,EC50,Mu-type opioid receptor,92.6 µM (inactive)
CCCC#Cc1ccc2c(c1)O[C@H](CN(C)C(=O)COC)[C@H](C)CN([C@@H](C)CO)S2(=O)=O,AC50,[12],1.19 µM (active)
CC(C)(C)Nc1nc(NN)nc(NC(C)(C)C)n1,IC50,[15],17.9 µM (active)

# — ChEMBL document CHEMBL1201862, “PubChem BioAssay data set” (2004)
